US6638943B2 (The University of Tennessee Research Foundation, priority 2001, dated 2003)
Where two headings read alike, the source gives them in different places.

What was measured:
human α1b-AR = target: T1, human α1b-AR (Homo sapiens, UniProt P35368); assay: [3H]prazosin equilibrium competition binding, human α1b-AR expressed in HEK cells
T1 construct: expressed in transfected cells; host or cells: HEK cells
T1 sequence (P35368 1-520): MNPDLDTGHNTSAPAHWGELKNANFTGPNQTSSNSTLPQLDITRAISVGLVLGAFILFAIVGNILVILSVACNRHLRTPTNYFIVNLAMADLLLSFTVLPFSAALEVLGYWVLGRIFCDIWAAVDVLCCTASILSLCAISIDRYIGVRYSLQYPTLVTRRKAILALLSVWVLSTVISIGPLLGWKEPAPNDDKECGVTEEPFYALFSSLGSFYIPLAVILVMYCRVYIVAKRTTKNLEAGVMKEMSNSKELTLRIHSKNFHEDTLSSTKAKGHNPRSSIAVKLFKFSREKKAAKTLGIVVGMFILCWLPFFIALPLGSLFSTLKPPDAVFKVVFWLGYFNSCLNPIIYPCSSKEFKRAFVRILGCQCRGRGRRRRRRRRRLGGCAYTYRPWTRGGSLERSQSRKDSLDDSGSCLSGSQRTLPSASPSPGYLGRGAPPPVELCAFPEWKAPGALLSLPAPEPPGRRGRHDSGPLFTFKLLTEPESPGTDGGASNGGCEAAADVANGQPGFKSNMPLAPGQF

human α2c-AR [1] = target: T2, human α2c-AR (Homo sapiens, UniProt P18825); assay: [3H]Rauwolscine equilibrium competition binding, human α2c-AR expressed in CHO cells
T2 construct: expressed in transfected cells
T2 sequence (P18825 1-462): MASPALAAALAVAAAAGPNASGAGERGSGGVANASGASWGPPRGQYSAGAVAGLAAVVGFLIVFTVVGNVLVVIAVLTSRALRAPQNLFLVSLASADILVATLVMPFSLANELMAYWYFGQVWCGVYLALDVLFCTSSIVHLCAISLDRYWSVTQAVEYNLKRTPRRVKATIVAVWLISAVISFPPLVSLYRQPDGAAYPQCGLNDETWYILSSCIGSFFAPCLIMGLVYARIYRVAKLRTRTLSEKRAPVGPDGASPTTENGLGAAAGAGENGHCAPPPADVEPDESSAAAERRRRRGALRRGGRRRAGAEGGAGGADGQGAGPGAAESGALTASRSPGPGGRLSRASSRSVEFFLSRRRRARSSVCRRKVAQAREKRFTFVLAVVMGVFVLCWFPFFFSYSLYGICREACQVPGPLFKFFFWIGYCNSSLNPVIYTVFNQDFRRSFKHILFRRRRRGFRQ

human α1a-AR = target: T3, human α1a-AR (Homo sapiens, UniProt P35348); assay: [3H]prazosin equilibrium competition binding, human α1a-AR expressed in HEK cells
T3 construct: expressed in transfected cells; host or cells: HEK cells
T3 sequence (P35348 1-466): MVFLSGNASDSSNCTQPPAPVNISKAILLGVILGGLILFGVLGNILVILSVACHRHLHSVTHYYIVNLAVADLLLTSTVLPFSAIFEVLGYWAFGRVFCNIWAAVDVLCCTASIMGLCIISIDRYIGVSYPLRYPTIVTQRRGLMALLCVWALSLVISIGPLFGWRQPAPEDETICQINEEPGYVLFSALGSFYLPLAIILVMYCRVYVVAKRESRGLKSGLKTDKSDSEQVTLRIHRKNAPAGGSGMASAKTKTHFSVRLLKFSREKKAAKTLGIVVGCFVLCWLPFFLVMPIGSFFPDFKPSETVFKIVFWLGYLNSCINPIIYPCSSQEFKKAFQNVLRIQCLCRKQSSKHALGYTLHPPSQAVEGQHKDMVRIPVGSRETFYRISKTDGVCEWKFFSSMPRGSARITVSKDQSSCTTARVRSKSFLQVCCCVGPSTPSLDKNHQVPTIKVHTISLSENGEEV

human α2b-AR = target: T4, human α2b-AR (Homo sapiens, UniProt P18089); assay: [3H]Rauwolscine equilibrium competition binding, human α2b-AR expressed in CHO cells
T4 construct: expressed in transfected cells
T4 sequence (P18089 1-450): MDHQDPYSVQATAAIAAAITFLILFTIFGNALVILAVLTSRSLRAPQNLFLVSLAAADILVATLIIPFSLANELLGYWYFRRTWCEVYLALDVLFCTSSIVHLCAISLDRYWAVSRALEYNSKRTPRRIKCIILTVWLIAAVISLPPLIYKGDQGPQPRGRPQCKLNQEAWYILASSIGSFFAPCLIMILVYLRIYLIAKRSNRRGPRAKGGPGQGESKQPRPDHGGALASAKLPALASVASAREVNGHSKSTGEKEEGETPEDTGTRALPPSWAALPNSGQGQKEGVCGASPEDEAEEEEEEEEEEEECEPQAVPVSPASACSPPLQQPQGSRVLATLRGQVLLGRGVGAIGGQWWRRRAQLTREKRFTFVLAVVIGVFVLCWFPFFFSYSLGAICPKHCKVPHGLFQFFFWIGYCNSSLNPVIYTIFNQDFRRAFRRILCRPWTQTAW

human α2a-AR [2] = target: T5, human α2a-AR (Homo sapiens, UniProt P08913); assay: [3H]Rauwolscine equilibrium competition binding, human α2a-AR expressed in CHO cells; conditions: human α2a-AR in CHO cells
T5 construct: expressed in transfected cells
T5 sequence (P08913 1-465): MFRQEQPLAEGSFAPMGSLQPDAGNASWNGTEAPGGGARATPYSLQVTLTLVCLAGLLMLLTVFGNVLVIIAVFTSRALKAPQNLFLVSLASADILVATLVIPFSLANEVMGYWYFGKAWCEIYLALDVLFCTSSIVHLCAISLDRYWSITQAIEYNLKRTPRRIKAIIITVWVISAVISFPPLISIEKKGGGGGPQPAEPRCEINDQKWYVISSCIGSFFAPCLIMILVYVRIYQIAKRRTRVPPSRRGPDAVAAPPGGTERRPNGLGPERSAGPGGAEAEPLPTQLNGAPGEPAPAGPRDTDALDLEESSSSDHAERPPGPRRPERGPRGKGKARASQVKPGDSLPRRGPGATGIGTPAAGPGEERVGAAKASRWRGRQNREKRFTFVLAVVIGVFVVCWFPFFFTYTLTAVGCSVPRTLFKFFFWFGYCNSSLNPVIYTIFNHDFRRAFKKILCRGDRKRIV

human α2a-AR [3] = target: T5, human α2a-AR; assay: Reversal of medetomidine mediated inhibition of forskolin-induced cAMP (6 CRE-LUC reporter), CHO cells expressing α2a-AR; assay type: cell-based; conditions: reversal of medetomidine (10 nM) effect on forskolin (5 μM) cAMP response; mean ± SEM of n=3-4; read-out: Effective Concentration-50 (nM ± SEM) α2a-AR
Procedure: (§1) The changes in cAMP levels were assessed by luciferase activities using a 6 CRE-LUC reporter gene bioassay.

human α2c-AR [4] = target: T2, human α2c-AR; assay: Reversal of medetomidine mediated inhibition of forskolin-induced cAMP (6 CRE-LUC reporter), CHO cells expressing α2c-AR; assay type: cell-based
Procedure: as §1

human α1d-AR = target: T6, human α1d-AR (Homo sapiens, UniProt P25100); assay: [3H]prazosin equilibrium competition binding, human α1d-AR expressed in HEK cells
T6 construct: expressed in transfected cells; host or cells: HEK cells
T6 sequence (P25100 1-572): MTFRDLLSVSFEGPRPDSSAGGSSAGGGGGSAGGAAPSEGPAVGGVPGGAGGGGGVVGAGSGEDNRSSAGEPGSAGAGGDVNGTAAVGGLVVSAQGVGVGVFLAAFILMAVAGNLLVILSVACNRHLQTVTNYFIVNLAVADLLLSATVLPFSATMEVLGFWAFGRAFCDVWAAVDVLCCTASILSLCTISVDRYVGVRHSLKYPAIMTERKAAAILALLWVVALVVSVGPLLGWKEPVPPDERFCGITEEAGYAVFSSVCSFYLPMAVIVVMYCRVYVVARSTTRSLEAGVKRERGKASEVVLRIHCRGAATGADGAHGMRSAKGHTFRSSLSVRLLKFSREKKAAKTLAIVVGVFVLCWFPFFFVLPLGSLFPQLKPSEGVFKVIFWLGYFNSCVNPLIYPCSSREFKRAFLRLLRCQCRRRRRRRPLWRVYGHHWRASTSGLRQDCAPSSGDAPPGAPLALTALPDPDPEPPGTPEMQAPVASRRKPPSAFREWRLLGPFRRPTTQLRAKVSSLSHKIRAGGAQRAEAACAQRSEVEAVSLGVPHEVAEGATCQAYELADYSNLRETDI

- Ki (human α1b-AR): 5750 nM
- Ki (human α2c-AR [1]): 5.75 nM
- pKi α2c-AR (human α2c-AR [1]; Table 3, CHO cells, [3H]rauwolscine, mean ± SEM of n = 4-6): 8.24 ± 0.07
- binding affinity for α2c-AR greater than on the α1-AR subtypes (human α2c-AR [1]; from Table 3): ≥ 1000 fold
- Ki (human α1a-AR): 17000 nM
- Ki (human α2b-AR; Table 2, mean ± SEM of n = 4-6, read-out: pKi α2b-AR (converted)): 2040 nM
- Ki (human α2b-AR; [3H]rauwolscine 2.54 nM, mean ± SEM of four to nine experiments, read-out: Ki = SEM (nM) α2b-AR): 990 ± 85.2 nM
- Ki (human α2a-AR [2]; Table 2, mean ± SEM of n = 4-6, read-out: pKi α2a-AR (converted)): 182 nM
- Ki (human α2a-AR [2]; [3H]rauwolscine 2.54 nM, mean ± SEM of four to nine experiments, read-out: Ki = SEM (nM) α2a-AR): 52 ± 3.2 nM
- EC50 (human α2a-AR [3]): 660 ± 210 nM
- EC50 (human α2c-AR [4]): 15.8 ± 5.2 nM
- more potent at inhibiting the action of medetomidine on α2c-AR versus α2a-AR (human α2c-AR [4]; from Table 4): 42 fold
- Ki (human α1d-AR): 7760 nM
SMILES: O=C(NCCCNC(=O)[C@@H]1[C@H]2C[C@H]3c4[nH]c5ccccc5c4CCN3C[C@@H]2CC[C@@H]1O)[C@@H]1[C@H]2C[C@H]3c4[nH]c5ccccc5c4CCN3C[C@@H]2CC[C@@H]1O [Compound 3b]
